“Also recorded” adds a separate entry of the source. Where two headings read alike, the source gives them in different places. Where a SMILES comes first, the peptide text is derived from it. [ ]: non-standard residue; d: D form. pGlu = O=C1CC[C@@H](C(=O)O)N1
What was measured:
[1] = Pharmacokinetics studies in mice (i.v. and s.c. bolus, plasma LC–MS/MS); assay type: in vivo; conditions: mouse; for AUC: tail vein blood over 90 min
Description: Male and female mice aged between 12–18 weeks old were used for these studies. Gast p59−79, ChgA 435−462a and Sst 25−36 were administered intravenously (i.v.) at 1 mg/kg and subcutaneously (s.c.) at various doses (see Fig. 7A, B and C for details on specific doses for each peptide). Blood samples were collected using EDTA coated microvette tubes (Starsedt, Leicester, UK) from the tail vein at various time points over 90 min. Blood was centrifuged (2000 g, 10 min, 4 °C) and the plasma separated. A 0.1 M sodium citrate (Sigma-Aldrich) buffer (adjusted to pH 3 with citric acid (Sigma-Aldrich)) was added to the plasma at a dilution of 1 in 10 to prevent degradation of Gast p59−79 and Sst 25−36. Plasma was stored -70 °C till extraction.
On the day of analysis, plasma samples were thawed, spiked with a stable isotope labelled version of Gast p59−79, ChgA 435−462a or Sst 25−36, and crashed with 200 μL 80 % ACN. After centrifuging, supernatants were removed and dried under gaseous nitrogen at 40 °C using a SPE Dry evaporator system (Biotage, Upsalla, Sweden). SPE was performed as described previously.
A Xevo TQ-XS triple quadrupole mass spectrometer coupled to H-class Aquity UPLC system enabled high throughput and targeted sample analysis. The column used was a Waters HSS T3 2.1 × 50 mm column at 60 °C and flowing at 350 μL/min. LC–MS/MS analysis was performed using positive ESI with a spray voltage of 3 kV, desolvation temperature 600°C, gas flow rate 1000 L/h and cone voltage of 40 V. Solvent A was 0.1 % FA in water (v/v) and Solvent B was 0.1 % FA in ACN (v/v). Each sample (40 μL per sample) was injected onto the column for 30 s with starting conditions set at 90 % A and 10 % B before the % B was increased to 50 % over the course of 3.5 min. The column was flushed with 90 % B for 1.5 min before initial conditions were restored. Total run time per sample was 5.5 min. Table 1 details the specifications used to quantify Gast p59−79, ChgA 435−462a, Sst 25−36 and their stable isotope labelled versions on a Xevo TQ-XS mass spectrometer.
Raw data files obtained on the Xevo TQ-XS triple quadrupole mass spectrometer were analysed using TargetLynx XS v4.2 software (Waters). Peptides were quantified by integrating the corresponding peaks and normalised to an internal standard if available. For pharmacokinetics studies, the concentration of peptide was estimated by comparing against a calibration line. SAAM II v2.2.1 (The Epsilon Group) with a Rosenbrock integrator and no maximum number of iterations was used to create a model for Gast p59−79 distribution and elimination upon single dose administration to mice.

[2] = test system: lean mice; test: 1st osmotic pump study: 28-day infusion, body weight, food intake, weekly IP GTT; assay type: in vivo, mouse; conditions: n = 5/group
Description: (§1) Three studies were performed to assess the in vivo efficacy of the ChgA 435−462a and Gast p59−79 (see Figure legends for specifics of each study). Peptides were administered by osmotic pumps implanted subcutaneously under isoflurane anaesthesia. Food intake was assessed using BioDaq (Research Diets) automated food intake cages. Intraperitoneal (IP) glucose tolerance tests (GTT) were performed by administering a 2 g/kg challenge of glucose and measuring blood glucose levels from the tail vein whereas oral GTT (OGTT) were performed using 1 g/kg glucose challenge. Insulin tolerance tests (ITT) were performed by administering a 0.75 U/kg dose of insulin IP to the mice and assessing blood glucose levels at 15, 30, 45, 60, 90 and 120 min post-insulin challenge.
Fig. 7 In vivo characterisation of novel peptides. (A-C) PK data of ChgA 435-462a, Gast p59-79, Sst 25-36. (D-G) Data from 1st osmotic pump study where n = 5/group. […] Body weights (E) and food intake (D) were measured throughout the study. Week 0 and day -7 represent baseline data prior to treatment onset. Glucose tolerance was assessed every 7 days after surgery via an IP GTT using a 2 g/kg glucose challenge. […] Statistical analysis performed using Kruskal-Wallis test with post-hoc Dunn tests. […] Mice singly housed and infused with either Gast p59-79 or vehicle for 7 days. […] Mice singly housed and infused with either Gast p59-79 or vehicle for 7 days. 2 g/kg IP GTT performed on day 7 (J, K) and 1 g/kg OGTT performed on day 14 (L, M). 0.75 U/kg ITT performed on day 21 (N, O). Body weights vs AUC during ITT on day 21 (P). Error bars represent SD. *P < 0.05, **p < 0.01, ***p < 0.005.

[3] = test system: mice; test: Osmotic pump study 2: 7-day infusion, IP GTT; assay type: in vivo, mouse; conditions: osmotic pump 7 days, 2 g/kg IP GTT on day 7, n = 8/group, vs vehicle, T test
Description: as §1
Fig. 7 In vivo characterisation of novel peptides. (A-C) PK data of ChgA 435-462a, Gast p59-79, Sst 25-36. (D-G) Data from 1st osmotic pump study where n = 5/group. […] Body weights (E) and food intake (D) were measured throughout the study. Week 0 and day -7 represent baseline data prior to treatment onset. Glucose tolerance was assessed every 7 days after surgery via an IP GTT using a 2 g/kg glucose challenge. Results from IP GTT on day 28 shown in (F, G). Statistical analysis performed using Kruskal-Wallis test with post-hoc Dunn tests. (H, I) Results from osmotic pump study 2 where n = 8/group. […]

[4] = test system: diet-induced obese mice (DIO); test: Osmotic pump study 3: IP GTT, OGTT and ITT in diet-induced obese mice; assay type: in vivo, mouse; conditions: vs vehicle
Description: as §1
Fig. 7 In vivo characterisation of novel peptides. (A-C) PK data of ChgA 435-462a, Gast p59-79, Sst 25-36. (D-G) Data from 1st osmotic pump study where n = 5/group. […] Body weights (E) and food intake (D) were measured throughout the study. Week 0 and day -7 represent baseline data prior to treatment onset. Glucose tolerance was assessed every 7 days after surgery via an IP GTT using a 2 g/kg glucose challenge. Results from IP GTT on day 28 shown in (F, G). Statistical analysis performed using Kruskal-Wallis test with post-hoc Dunn tests. (H, I) Results from osmotic pump study 2 where n = 8/group. Mice singly housed and infused with either Gast p59-79 or vehicle for 7 days. 2 g/kg IP GTT performed on day 7 and results shown in H and I. Statistical analysis performed using T test. (J-P) Results from osmotic pump study 3 where n = 7/group. Mice singly housed and infused with either Gast p59-79 or vehicle for 7 days. 2 g/kg IP GTT performed on day 7 (J, K) and 1 g/kg OGTT performed on day 14 (L, M). 0.75 U/kg ITT performed on day 21 (N, O). Body weights vs AUC during ITT on day 21 (P). Error bars represent SD. *P < 0.05, **p < 0.01, ***p < 0.005.

## CC[C@H](C)[C@H](NC(=O)[C@H](Cc1ccccc1)NC(=O)[C@H](Cc1c[nH]cn1)NC(=O)[C@H](CCC(N)=O)NC(=O)[C@@H]1CCCN1C(=O)CNC(=O)[C@H](CCC(N)=O)NC(=O)[C@@H]1CCCN1C(=O)CNC(=O)[C@H](CC(C)C)NC(=O)[C@@H]1CCC(=O)N1)C(=O)N[C@@H](C)C(=O)N[C@@H](CC(=O)O)C(=O)N[C@@H](CC(C)C)C(=O)N[C@@H](CO)C(=O)N[C@@H](CCCCN)C(=O)N[C@@H](CCCCN)C(=O)N[C@@H](CCC(N)=O)C(=O)N[C@@H](CCCNC(=N)N)C(=O)N1CCC[C@H]1C(=O)N[C@@H](CCCNC(=N)N)C(=O)O [Gast p59−79] ([pGlu]LGPQGPQHFIADLSKKQRPR-OH; C-terminus assumed)
[1]; both sexes, C57BL/6 N J, iv, 1 mg/kg, plasma LC–MS/MS
  AUC: 503 ng·h/mL
[1]; both sexes, C57BL/6 N J, plasma, iv, i.v., 1 mg/kg, read-out: Clearance (converted)
  Clearance: 0.332
[1]; both sexes, C57BL/6 N J, sc, 10 mg/kg, plasma LC–MS/MS
  AUC: 558 ng·h/mL
[1]; both sexes, C57BL/6 N J, sc, administered subcutaneously, plasma LC–MS/MS
  half-life: 18.1 min
[1]; estimated from PK data (SAAM II model), osmotic pump infusion
  mass delivery rate required to obtain steady state concentration of 1 nM: 0.77 mg/kg/day
[1]; s.c., 10 mg/kg
  Clearance: 0.298 mL/min/kg
[1]; s.c., 10 mg/kg, plasma LC–MS/MS
  Bioavailability (%): 110%
[1]; s.c., text summary of table S1
  bioavailability when administered subcutaneously (in words): good bioavailability
[2]; 6-8 week old male mice, BioDAQ cages, osmotic pump 28 days, ChgA 435-462a 0.3, Gast p59-79 0.8, exenatide 0.03 mg/kg/day, vs PBS
  food intake compared with controls: No significant differences
[2]; 6-8 week old male mice, osmotic pump 28 days, ChgA 435-462a 0.3, Gast p59-79 0.8, exenatide 0.03 mg/kg/day, vs PBS
  body weight compared with controls: No significant differences
[2]; lean male mice, Gast p59-79 0.8 mg/kg/day, IP GTT 2 g/kg, Kruskal-Wallis with Dunn tests
  IP GTT AUC analyses: did not reach significance
[2]; lean male mice, osmotic pump 28 days, IP GTT 2 g/kg glucose every 7 days, ChgA 435-462a 0.3, Gast p59-79 0.8, exenatide 0.03 mg/kg/day, vs PBS
  glucose tolerance in IP GTT (blood glucose): Small but significant improvements in individual time point glucose levels
[3]
  glucose tolerance in IP GTT, second mouse cohort: modestly improves glucose tolerance
[4]; 0.75 U/kg ITT day 21, n = 7/group, significant effect of body weight on AUC (p = 0.009), two-way ANOVA
  AUC during ITT: also evident in the AUCs (p = 0.011)
[4]; 0.75 U/kg insulin IP on day 21, n = 7/group, confounded by body weight
  blood glucose levels in ITT: differed at 90 and 120 min post-insulin challenge; also recorded: appeared to slow glucose normalisation following an ITT
[4]; osmotic pump, 2 g/kg IP GTT day 7, 1 g/kg OGTT day 14, n = 7/group, confounded by weight loss
  glucose tolerance (IP GTT and OGTT) in DIO mice: did not suggest that Gast p59−79 affected glucose tolerance

From paper PMC8121762, “Peptidomics of enteroendocrine cells and characterisation of potential effects of a novel preprogastrin derived-peptide on glucose tolerance in lean mice” (Peptides, 2021)
